{"source": "patent EP0358177A1", "about": "“Medicine with a synergistic antimycosic and antiviral activity” (HOECHST AKTIENGESELLSCHAFT, priority 1988, dated 1990)", "assay_type_in_all_cases": "cell-based", "key": {"C. albicans": {"system": "C. albicans", "assay": "Minimal inhibitory concentration (MHK), microdilution test in Neopepton Dextrose Bouillon", "details": "Candida albicans, read-out: MHK", "text": "(§1) Die minimale Hemmkonzentration (MHK), das heißt, diejenige Konzentration bei der das Wachstum der Pilze noch makroskopisch sichtbar gehemmt ist, wurde im Mitrkoverdünnungstest (Mikrodilutiontest in Neopepton Dextrose Boullion, siehe: \"Comparison of two different techniques in primary micrological screening\": Standard serial dilution test and microtitration test; W. Raether, M. Uphoff und G. Staut, mycosen, 27 (1984), p. 15 - 28) geprüft. Das Inokulum pro Weil betrug bei Candida albicans 10^3 cfu/ml und bei Microsporum canis 1,6 10^5 cfu/ml (cfu = colony forming units).\n(§2) Zunächst wurde die minimale Hemmkonzentration eines jeden Kombinationspartners (Ciclopiroxolamin bzw. Nigericin oder Nigericinderivat) allein festgestellt (Cyclopyoxolamin: 2 u.g/ml; Nigericin und alle Nigericinderivate: >128 u.g/ml). Anschließend wurde die MHK für Ciclopiroxolamin in Anwesenheit von jeweils 64 µg/ml, 16 u.g/ml und 1 µg/ml eines Nigericinderivats geprüft, um festzustellen inwieweit der Zusatz des Nigericinderivats die Wirkung von Ciclopiroxolamin verstärken konnte."}, "M. canis": {"system": "M. canis", "assay": "Minimal inhibitory concentration (MHK), microdilution test in Neopepton Dextrose Bouillon", "details": "Microsporum canis, read-out: MHK", "text": "as §1, §2"}, "[1]": {"system": "Microsporum Canis und Candida albicans", "assay": "Minimal inhibitory concentration (MHK), microdilution test, text statements not separated by test strain", "details": "each combination partner alone; test strain not specified; read-out: minimale Hemmkonzentration eines jeden Kombinationspartners allein", "text": "as §1, §2"}}, "note": "Read-outs that look alike come from different tables or passages of the source.", "data": [{"molecule": "CO[C@@H]1C[C@@H](C[C@H]2CC[C@H](C)[C@H]([C@@H](C)C(=O)O)O2)O[C@]2(O[C@](C)([C@H]3CC[C@@](C)([C@@H]4O[C@@H]([C@H]5O[C@@](O)(CO)[C@H](C)C[C@@H]5C)C[C@@H]4C)O3)C[C@H]2C)[C@@H]1C", "note": "[Nigericin, reference compound]", "values": [{"measurement": "MIC", "setting": "C. albicans; C. albicans, substance alone", "result": 128, "unit": "µg/mL"}, {"measurement": "MIC", "setting": "M. canis; M. canis, substance alone", "result": 128, "unit": "µg/mL"}]}, {"molecule": "COC1CC(CC2CCC(C)C(C(C)C(=O)O)O2)OC2(OC(C)(C3CCC(C)(C4OC(C5OC(O)(COC(=O)CCC(=O)O)C(C)CC5C)CC4C)O3)CC2C)C1C", "note": "(stereo not shown) [Beispiel 17]", "values": [{"measurement": "MIC", "setting": "C. albicans", "result": 128, "unit": "µg/mL"}, {"measurement": "MIC", "setting": "M. canis", "result": 128, "unit": "µg/mL"}]}, {"molecule": "COC1CC(CC2CCC(C)C(C(C)C(=O)O)O2)OC2(OC(C)(C3CCC(C)(C4OC(C5OC(O)(COC(=O)CCOc6ccccc6)C(C)CC5C)CC4C)O3)CC2C)C1C", "note": "(stereo not shown) [Beispiel 20]", "values": [{"measurement": "MIC", "setting": "C. albicans", "result": 128, "unit": "µg/mL"}, {"measurement": "MIC", "setting": "M. canis", "result": 128, "unit": "µg/mL"}]}, {"molecule": "Cc1cc(C2CCCCC2)n(O)c(=O)c1", "note": "[Ciclopiroxolamin, Ethanolamin des 6-Cyclohexyl-1-Hydroxy-4-methyl-2(1H)-Pyridons, reference compound]", "values": [{"measurement": "MIC", "setting": "C. albicans; C. albicans, substance alone", "result": 2, "unit": "µg/mL"}, {"measurement": "MIC", "setting": "M. canis; M. canis, substance alone", "result": 2, "unit": "µg/mL"}, {"measurement": "MIC", "setting": "[1]", "result": 2, "unit": "µg/mL"}]}, {"molecule": "COC1CC(CC2CCC(C)C(C(C)C(=O)O)O2)OC2(OC(C)(C3CCC(C)(C4OC(C5OC(O)(COC(=O)Cc6ccccc6)C(C)CC5C)CC4C)O3)CC2C)C1C", "note": "(stereo not shown) [Beispiel 19]", "values": [{"measurement": "MIC", "setting": "C. albicans; C. albicans, substance alone", "result": 128, "unit": "µg/mL"}, {"measurement": "MIC", "setting": "M. canis; M. canis, substance alone", "result": 128, "unit": "µg/mL"}]}, {"molecule": "COC1CC(CC2CCC(C)C(C(C)C(=O)O)O2)OC2(OC(C)(C3CCC(C)(C4OC(C5OC(O)(COC(=O)c6ccccc6)C(C)CC5C)CC4C)O3)CC2C)C1C", "note": "(stereo not shown) [Beispiel 18]", "values": [{"measurement": "MIC", "setting": "C. albicans", "result": 128, "unit": "µg/mL"}, {"measurement": "MIC", "setting": "M. canis", "result": 128, "unit": "µg/mL"}]}]}
